Experimental data from patent US12077503B2, “Substituted cyclic amides and their use as herbicides” (FMC CORPORATION, priority 2015, dated 2024).

Legend:
Type in all cases: in vivo
[1] = test system: ivy-leaved morning glory (Ipomoea hederacea); assay: Test G Post-Emergence Protocol; conditions: Ipomoea, post-emergence, 312 h
How it was run: (§1)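 Eight days post-sowing, plants received a spray of test compound (acetone/water 50:50, 0.5% Tween 20) at 15.625, 62.5 or 250 g/ha. Glasshouse regime thereafter: 24/16 °C, 14 h light, 65% humidity. Assessment after 13 days on a 0–100 damage scale.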

[2] = test system: redroot pigweed (Amaranthus retroflexus); assay: Test G Post-Emergence Protocol; conditions: Amaranthus retroflexus, post-emergence, 312 h
How it was run: as §1

[3] = test system: barnyardgrass (Echinochloa crus-galli); assay: Test G Post-Emergence Protocol; conditions: Echinochloa crus-galli, post-emergence, 312 h
How it was run: as §1

[4] = test system: velvetleaf (Abutilon theophrasti); assay: Test G Post-Emergence Protocol; conditions: Abutilon theophrasti, post-emergence, 312 h
How it was run: as §1

corn (Zea mays) [5] = assay: Test G Post-Emergence Protocol; conditions: Zea mays, post-emergence, 312 h
How it was run: as §1

[6] = test system: giant foxtail (Setaria faberi); assay: Test G Post-Emergence Protocol; conditions: Setaria faberi, post-emergence, 312 h
How it was run: as §1

[7] = test system: ivy-leaved morning glory (Ipomoea hederacea); assay: Test G Pre-Emergence Protocol; conditions: Ipomoea, pre-emergence, 312 h, evaluated after 13 days
How it was run: (§2)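 Seeds were sown in standard soil and kept one day in a glasshouse (24/16° C day/night, 14 h light, 65% humidity), then sprayed with compound in acetone/water (50:50) containing 0.5% Tween 20 at 15.625, 62.5 or 250 g/ha. Damage was scored after 13 days (0 = none, 100 = total).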

[8] = test system: redroot pigweed (Amaranthus retroflexus); assay: Test G Pre-Emergence Protocol; conditions: Amaranthus retroflexus, pre-emergence, 312 h, evaluated after 13 days
How it was run: as §2

[9] = test system: barnyardgrass (Echinochloa crus-galli); assay: Test G Pre-Emergence Protocol; conditions: Echinochloa crus-galli, pre-emergence, 312 h, evaluated after 13 days
How it was run: as §2

[10] = test system: velvetleaf (Abutilon theophrasti); assay: Test G Pre-Emergence Protocol; conditions: Abutilon theophrasti, pre-emergence, 312 h, evaluated after 13 days
How it was run: as §2

corn (Zea mays) [11] = assay: Test G Pre-Emergence Protocol; conditions: Zea mays, pre-emergence, 312 h, evaluated after 13 days
How it was run: as §2

[12] = test system: giant foxtail (Setaria faberi); assay: Test G Pre-Emergence Protocol; conditions: Setaria faberi, pre-emergence, 312 h, evaluated after 13 days
How it was run: as §2

Cc1cccnc1NC(=O)C1C(=O)N(C)CC1c1ccc(C(F)(F)F)cc1 (stereo not drawn) [Compound 1437]
0%: pest or weed control at 15.625 g/ha ([1]; 15.625 g ai/ha, evaluated after 13 days (100=total damage to plant; 0=no damage to plant), read-out: Morningglory, Ivy-leaved damage rating) | pest or weed control at 62.5 g/ha ([1]; 62.5 g ai/ha, evaluated after 13 days, read-out: Morningglory, Ivy-leaved damage rating (100=total damage to plant; 0=no damage to plant)) | pest or weed control at 250 g/ha ([1]; 250 g ai/ha, evaluated after 13 days, read-out: damage to plant, Morningglory, Ivy-leaved (100=total damage to plant; 0=no damage to plant)) | pest or weed control at 15.625 g/ha ([2]; 15.625 g ai/ha, evaluated after 13 days (100=total damage to plant; 0=no damage to plant), read-out: Pigweed, Redroot damage rating) | pest or weed control at 62.5 g/ha ([2]; 62.5 g ai/ha, evaluated after 13 days, read-out: Pigweed, Redroot damage rating (100=total damage to plant; 0=no damage to plant)) | pest or weed control at 250 g/ha ([2]; 250 g ai/ha, evaluated after 13 days, read-out: damage to plant, Pigweed, Redroot (100=total damage to plant; 0=no damage to plant)) | pest or weed control at 15.625 g/ha ([3]; 15.625 g ai/ha, evaluated after 13 days (100=total damage to plant; 0=no damage to plant), read-out: Barnyardgrass damage rating) | pest or weed control at 62.5 g/ha ([3]; 62.5 g ai/ha, evaluated after 13 days, read-out: Barnyardgrass damage rating (100=total damage to plant; 0=no damage to plant)) | pest or weed control at 250 g/ha ([3]; 250 g ai/ha, evaluated after 13 days, read-out: damage to plant, Barnyardgrass (100=total damage to plant; 0=no damage to plant)) | pest or weed control at 15.625 g/ha ([4]; 15.625 g ai/ha, evaluated after 13 days (100=total damage to plant; 0=no damage to plant), read-out: Velvetleaf damage rating) | pest or weed control at 62.5 g/ha ([4]; 62.5 g ai/ha, evaluated after 13 days, read-out: Velvetleaf damage rating (100=total damage to plant; 0=no damage to plant)) | pest or weed control at 250 g/ha ([4]; 250 g ai/ha, evaluated after 13 days, read-out: damage to plant, Velvetleaf (100=total damage to plant; 0=no damage to plant)) | plant injury at 15.625 g/ha (corn (Zea mays) [5]; 15.625 g ai/ha, evaluated after 13 days (100=total damage to plant; 0=no damage to plant), read-out: Corn damage rating) | plant injury at 62.5 g/ha (corn (Zea mays) [5]; 62.5 g ai/ha, evaluated after 13 days, read-out: Corn damage rating (100=total damage to plant; 0=no damage to plant)) | plant injury at 250 g/ha (corn (Zea mays) [5]; 250 g ai/ha, evaluated after 13 days, read-out: damage to plant, Corn (100=total damage to plant; 0=no damage to plant)) | pest or weed control at 15.625 g/ha ([6]; 15.625 g ai/ha, evaluated after 13 days (100=total damage to plant; 0=no damage to plant), read-out: Foxtail, Giant damage rating) | pest or weed control at 62.5 g/ha ([6]; 62.5 g ai/ha, evaluated after 13 days, read-out: Foxtail, Giant damage rating (100=total damage to plant; 0=no damage to plant)) | pest or weed control at 250 g/ha ([6]; 250 g ai/ha, evaluated after 13 days, read-out: damage to plant, Foxtail, Giant (100=total damage to plant; 0=no damage to plant)) | pest or weed control at 15.625 g/ha ([7]; 15.625 g ai/ha, read-out: Morning-glory, Ivy-leaved damage rating (100=total damage to plant; 0=no damage to plant)) | pest or weed control at 62.5 g/ha ([7]; 62.5 g ai/ha, 100=total damage to plant, 0=no damage to plant, read-out: plant damage rating, Morningglory, Ivy-leaved) | pest or weed control at 250 g/ha ([7]; 250 g ai/ha, read-out: Morningglory, Ivy-leaved damage rating (100=total damage to plant; 0=no damage to plant)) | pest or weed control at 15.625 g/ha ([8]; 15.625 g ai/ha, read-out: Pigweed, Redroot damage rating (100=total damage to plant; 0=no damage to plant)) | pest or weed control at 62.5 g/ha ([8]; 62.5 g ai/ha, 100=total damage to plant, 0=no damage to plant, read-out: plant damage rating, Pigweed, Redroot) | pest or weed control at 250 g/ha ([8]; 250 g ai/ha, read-out: Pigweed, Redroot damage rating (100=total damage to plant; 0=no damage to plant)) | pest or weed control at 15.625 g/ha ([9]; 15.625 g ai/ha, read-out: Barnyard grass damage rating (100=total damage to plant; 0=no damage to plant)) | pest or weed control at 62.5 g/ha ([9]; 62.5 g ai/ha, 100=total damage to plant, 0=no damage to plant, read-out: plant damage rating, Barnyardgrass) | pest or weed control at 250 g/ha ([9]; 250 g ai/ha, read-out: Barnyardgrass damage rating (100=total damage to plant; 0=no damage to plant)) | pest or weed control at 15.625 g/ha ([10]; 15.625 g ai/ha, read-out: Velvetleaf damage rating (100=total damage to plant; 0=no damage to plant)) | pest or weed control at 62.5 g/ha ([10]; 62.5 g ai/ha, 100=total damage to plant, 0=no damage to plant, read-out: plant damage rating, Velvetleaf) | pest or weed control at 250 g/ha ([10]; 250 g ai/ha, read-out: Velvetleaf damage rating (100=total damage to plant; 0=no damage to plant)) | plant injury at 15.625 g/ha (corn (Zea mays) [11]; 15.625 g ai/ha, read-out: Corn damage rating (100=total damage to plant; 0=no damage to plant)) | plant injury at 62.5 g/ha (corn (Zea mays) [11]; 62.5 g ai/ha, 100=total damage to plant, 0=no damage to plant, read-out: plant damage rating, Corn) | plant injury at 250 g/ha (corn (Zea mays) [11]; 250 g ai/ha, read-out: Corn damage rating (100=total damage to plant; 0=no damage to plant)) | pest or weed control at 15.625 g/ha ([12]; 15.625 g ai/ha, read-out: Foxtail, Giant damage rating (100=total damage to plant; 0=no damage to plant)) | pest or weed control at 62.5 g/ha ([12]; 62.5 g ai/ha, 100=total damage to plant, 0=no damage to plant, read-out: plant damage rating, Foxtail, Giant) | pest or weed control at 250 g/ha ([12]; 250 g ai/ha, read-out: Foxtail, Giant damage rating (100=total damage to plant; 0=no damage to plant))
